Experiments:
Type in all cases: cell-based
[1] = molecular target: T1, human muscarinic M1 receptor (Homo sapiens, UniProt P11229); experiment: Alphascreen Surefire phospho-ERK1/2 functional assay, M1; details: for EC50 / % Emax cf. ACh, M1 / pEC50 M1: CHO cells stably expressing human M1; for EC50 / pEC50 M1: agonist 5 min, 37° C.; for EC50: read-out: pEC50 M1 (converted); for Emax: CHO, read-out: % Emax cf. ACh, M1, CHO cells stably expressing human M1; for Emax / % Emax cf. ACh, M1: Emax compared with ACh
T1 sequence (P11229 1-460): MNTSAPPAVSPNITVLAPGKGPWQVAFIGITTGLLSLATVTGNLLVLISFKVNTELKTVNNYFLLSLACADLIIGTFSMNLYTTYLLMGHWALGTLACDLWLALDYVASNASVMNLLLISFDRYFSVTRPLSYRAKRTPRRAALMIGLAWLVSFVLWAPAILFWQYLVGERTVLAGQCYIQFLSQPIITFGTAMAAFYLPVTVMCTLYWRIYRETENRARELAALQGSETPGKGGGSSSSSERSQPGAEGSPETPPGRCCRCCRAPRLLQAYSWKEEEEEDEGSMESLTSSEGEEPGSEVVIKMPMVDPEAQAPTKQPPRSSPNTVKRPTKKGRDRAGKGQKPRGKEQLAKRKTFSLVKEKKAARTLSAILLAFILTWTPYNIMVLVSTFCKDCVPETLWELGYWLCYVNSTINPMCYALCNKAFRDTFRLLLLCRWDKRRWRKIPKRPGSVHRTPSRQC
Method: (§1) ERK1/2 phosphorylation is a downstream consequence of both Gq/11 and Gi/o protein coupled receptor activation, making it highly suitable for the assessment of M1, M3 (Gq/11 coupled) and M2, M4 receptors (Gi/o coupled), rather than using different assay formats for different receptor subtypes. CHO cells stably expressing the human muscarinic M1, M2, M3 or M4 receptor were plated (25K/well) onto 96-well tissue culture plates in MEM-alpha+10% dialysed FBS. Once adhered, cells were serum-starved overnight. Agonist stimulation was performed by the addition of 5 μL agonist to the cells for 5 min (37° C.). Media was removed and 50 μL of lysis buffer added. After 15 min, a 4 μL sample was transferred to 384-well plate and 7 μL of detection mixture added. Plates were incubated for 2 h with gentle agitation in the dark and then read on a PHERAstar plate reader.
(§2) pEC50 and Emax figures were calculated from the resulting data for each receptor subtype.

[2] = molecular target: T2, human muscarinic M2 receptor (Homo sapiens, UniProt P08172); experiment: Alphascreen Surefire phospho-ERK1/2 functional assay, M2; details: for EC50 / % Emax cf. ACh, M2 / pEC50 M2: CHO cells stably expressing human M2; for EC50 / pEC50 M2: agonist 5 min, 37° C.; for EC50: read-out: pEC50 M2 (converted); for Emax: CHO, read-out: % Emax cf. ACh, M2, CHO cells stably expressing human M2; for Emax / % Emax cf. ACh, M2: Emax compared with ACh
T2 sequence (P08172 1-466): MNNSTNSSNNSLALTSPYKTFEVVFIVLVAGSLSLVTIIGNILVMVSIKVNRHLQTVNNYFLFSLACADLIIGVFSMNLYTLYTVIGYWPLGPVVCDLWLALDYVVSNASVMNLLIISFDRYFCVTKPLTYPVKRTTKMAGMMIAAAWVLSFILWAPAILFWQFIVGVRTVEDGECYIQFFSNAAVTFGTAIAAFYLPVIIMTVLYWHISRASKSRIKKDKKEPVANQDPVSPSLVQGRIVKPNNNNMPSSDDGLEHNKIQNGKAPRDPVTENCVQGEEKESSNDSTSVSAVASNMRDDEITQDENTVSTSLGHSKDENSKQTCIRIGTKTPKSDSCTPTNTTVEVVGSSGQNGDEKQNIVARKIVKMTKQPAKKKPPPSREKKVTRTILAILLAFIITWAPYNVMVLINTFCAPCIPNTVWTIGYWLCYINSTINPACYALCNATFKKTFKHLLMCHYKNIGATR
Method: as §1, §2

[3] = molecular target: T3, human muscarinic M3 receptor (Homo sapiens, UniProt P20309); experiment: Alphascreen Surefire phospho-ERK1/2 functional assay, M3; details: for EC50 / % Emax cf. ACh, M3 / pEC50 M3: CHO cells stably expressing human M3; for EC50 / pEC50 M3: agonist 5 min, 37° C.; for EC50: read-out: pEC50 M3 (converted); for Emax: CHO, read-out: % Emax cf. ACh, M3, CHO cells stably expressing human M3; for Emax / % Emax cf. ACh, M3: Emax compared with ACh
T3 construct: expressed in transfected cells
T3 sequence (P20309 whole entry): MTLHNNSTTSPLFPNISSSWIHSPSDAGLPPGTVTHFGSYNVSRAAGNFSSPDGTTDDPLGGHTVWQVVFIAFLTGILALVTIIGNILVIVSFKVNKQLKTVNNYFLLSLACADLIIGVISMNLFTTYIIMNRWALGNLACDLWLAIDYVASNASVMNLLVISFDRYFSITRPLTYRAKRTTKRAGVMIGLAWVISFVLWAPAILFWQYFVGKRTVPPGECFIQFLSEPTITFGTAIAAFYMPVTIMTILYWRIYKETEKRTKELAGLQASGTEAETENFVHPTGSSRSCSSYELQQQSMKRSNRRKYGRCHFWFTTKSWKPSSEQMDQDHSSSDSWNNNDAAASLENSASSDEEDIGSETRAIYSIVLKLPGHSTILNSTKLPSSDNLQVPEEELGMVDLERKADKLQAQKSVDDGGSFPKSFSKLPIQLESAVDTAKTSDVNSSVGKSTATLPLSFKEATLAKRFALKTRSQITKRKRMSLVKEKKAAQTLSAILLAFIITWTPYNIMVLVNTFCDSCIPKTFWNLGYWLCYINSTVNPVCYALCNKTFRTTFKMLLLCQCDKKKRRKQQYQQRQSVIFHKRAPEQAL
Method: as §1, §2

[4] = molecular target: T4, human muscarinic M4 receptor (Homo sapiens, UniProt P08173); experiment: Alphascreen Surefire phospho-ERK1/2 functional assay, M4; details: for EC50: read-out: pEC50 M4 (converted); for Emax: CHO, read-out: % Emax cf. ACh, M4, CHO cells stably expressing human M4; for Emax / % Emax cf. ACh, M4: Emax compared with ACh
T4 construct: expressed in transfected cells
T4 sequence (P08173 1-479): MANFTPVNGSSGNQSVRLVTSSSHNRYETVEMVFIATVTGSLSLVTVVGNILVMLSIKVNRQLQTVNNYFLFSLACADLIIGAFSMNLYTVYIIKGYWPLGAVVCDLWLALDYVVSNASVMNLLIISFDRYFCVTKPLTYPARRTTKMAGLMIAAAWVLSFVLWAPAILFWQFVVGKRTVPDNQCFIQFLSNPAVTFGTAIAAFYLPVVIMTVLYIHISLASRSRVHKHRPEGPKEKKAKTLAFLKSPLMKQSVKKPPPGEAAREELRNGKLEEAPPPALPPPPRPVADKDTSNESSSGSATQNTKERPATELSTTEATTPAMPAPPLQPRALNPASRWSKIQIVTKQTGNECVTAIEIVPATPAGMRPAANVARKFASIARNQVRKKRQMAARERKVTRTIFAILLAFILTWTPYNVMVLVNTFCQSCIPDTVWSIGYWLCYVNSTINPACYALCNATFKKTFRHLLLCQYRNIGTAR
Method: as §1, §2

[5] = CHO cells stably expressing human M4, agonist 5 min, 37° C.
[6] = CHO cells stably expressing human M4

Row | EC50 [1] | Emax [1] | EC50 [2] | Emax [2] | EC50 [3] | Emax [3] | EC50 [4, 5] | Emax [4] | % Emax cf. ACh, M1 [1] | % Emax cf. ACh, M2 [2] | % Emax cf. ACh, M3 [3] | pEC50 M2 [2] | pEC50 M3 [3] | % Emax cf. ACh, M4 [4, 6] | pEC50 M1 [1] | pEC50 M4 [4, 5] | Structure (SMILES)
1 | > 20000 nM | 22% | > 20000 nM | 7% | > 20000 nM | 5% | 20 nM | 93% |  |  |  |  |  |  |  |  | CCCC(=NOC)C1CCN(C2CC3(CCN(C(=O)OCC)C3)C2)CC1 (mixture of isomers) [2-3 Mixture of two isomers]
2 | 100 nM | 109% | > 20000 nM | 4% | > 20000 nM | 5% | 79.4 nM | 72% |  |  |  |  |  |  |  |  | CCOC(=O)N1CCCC(N2CCC(C(C#N)=NOC(C)C)CC2)CC1 (mixture of isomers) [4-1 Mixture of isomers]
3 | 251 nM | 136% |  |  |  |  | 398 nM | 56% |  |  |  |  |  |  |  |  | CCOC(=O)N1CCCC(N2CCC(C(=NOC)NCC(C)C)CC2)CC1 (racemic) [3-1 Mixture of isomers]
4 | 1580 nM | 54% | > 20000 nM | 4% | > 20000 nM | 1% | 126 nM | 71% |  |  |  |  |  |  |  |  | CCOC(=O)N1CCCC(N2CCC(C(C)=NOC)CC2)CC1 (single isomer, unassigned) [1-1 Isomer 2 (racemic)]
5 | 501 nM |  | > 20000 nM |  | > 20000 nM |  | 79.4 nM | 99% | 58% | 2% | 37% |  |  |  |  |  | CCOC(=O)N1CCCC(N2CCC(C(CC)=NOC)CC2)CC1 (single isomer, unassigned) [1-2 Isomer 1 (racemic)]
6 | 398 nM |  |  |  |  |  | 25.1 nM |  | 83% | 7% | 1% | < 4.7 | < 4.7 | 94% |  |  | CCOC(=O)N1CCCC(N2CCC(C(CC)=NOC)CC2)CC1 (single isomer, unassigned) [1-2 Isomer 2 (racemic)]
7 | 316 nM | 106% |  |  |  |  | 25.1 nM | 85% |  |  |  |  |  |  |  |  | CCCC(=NOC)C1CCN(C2CCCN(C(=O)OCC)CC2)CC1 (single isomer, unassigned) [1-3 Isomer 1 (racemic)]
8 | 63.1 nM |  | > 20000 nM | 21% | > 20000 nM | 17% | 50.1 nM |  | 92% |  |  |  |  | 83% |  |  | CCCC(=NOC)C1CCN(C2CCCN(C(=O)OCC)CC2)CC1 (single isomer, unassigned) [1-3 Isomer 2 (racemic)]
9 | 398 nM | 87% | > 20000 nM |  | > 20000 nM | 5% | 50.1 nM | 115% |  | 24% |  |  |  |  |  |  | CCOC(=O)N1CCCC(N2CCC(C(=NOC)C(C)C)CC2)CC1 (single isomer, unassigned) [1-4 Isomer 1 (racemic)]
10 | 316 nM |  | > 15800 nM |  | > 15800 nM |  | 31.6 nM |  | 95% | 7% | 6% |  |  | 107% |  |  | CCOC(=O)N1CCCC(N2CCC(C(=NOC)C(C)C)CC2)CC1 (single isomer, unassigned) [1-4 Isomer 2 (racemic)]
11 |  |  |  |  |  |  |  |  | 105% | 22% | 4% | < 4.7 | < 4.7 | 104% | 6.5 | 7.5 | CCOC(=O)N1CCCC(N2CCC(C(=NOC)C(C)C)CC2)CC1 (single isomer, unassigned) [1-5 Isomer 2 (racemic)]
12 | 39.8 nM | 96% | > 20000 nM | 10% | > 20000 nM | 16% | 126 nM | 65% |  |  |  |  |  |  |  |  | CCOC(=O)N1CCCC(N2CCC(C(CCC(C)C)=NOC)CC2)CC1 (single isomer, unassigned) [1-6 Isomer 2 (racemic)]
13 | 631 nM | 48% |  |  |  |  | 631 nM | 52% |  |  |  |  |  |  |  |  | CCON=C(C)C1CCN(C2CCCN(C(=O)OCC)CC2)CC1 (single isomer, unassigned) [1-7 Isomer 1 (racemic)]
14 | 501 nM |  |  |  |  |  | 251 nM |  | 66% |  |  |  |  | 62% |  |  | CCON=C(C)C1CCN(C2CCCN(C(=O)OCC)CC2)CC1 (single isomer, unassigned) [1-7 Isomer 2 (racemic)]
15 | 794 nM | 65% |  |  |  |  | 794 nM | 46% |  |  |  |  |  |  |  |  | CCCON=C(C)C1CCN(C2CCCN(C(=O)OCC)CC2)CC1 (single isomer, unassigned) [1-8 Isomer 1 (racemic)]
16 | 316 nM |  |  |  |  |  | 316 nM |  | 85% |  |  |  |  | 50% |  |  | CCCON=C(C)C1CCN(C2CCCN(C(=O)OCC)CC2)CC1 (single isomer, unassigned) [1-8 Isomer 2 (racemic)]
17 | 631 nM | 57% |  |  |  |  | > 20000 nM |  |  |  |  |  |  | 0% |  |  | CCOC(=O)N1CCCC(N2CCC(C(C)=NOC(C)C)CC2)CC1 (single isomer, unassigned) [1-9 Isomer 1 (racemic)]
18 |  |  |  |  |  |  | 398 nM |  | 46% |  |  |  |  | 81% | 6.2 |  | CCOC(=O)N1CCCC(N2CCC(C(C)=NOC(C)C)CC2)CC1 (single isomer, unassigned) [1-9 Isomer 2 (racemic)]
19 | 251 nM | 107% |  |  |  |  | 126 nM |  |  |  |  |  |  | 72% |  |  | CCCON=C(CC)C1CCN(C2CCCN(C(=O)OCC)CC2)CC1 (single isomer, unassigned) [1-11 Isomer 1 (racemic)]
20 | 158 nM |  | > 20000 nM | 19% | > 20000 nM | 6% | 63.1 nM |  | 99% |  |  |  |  | 97% |  |  | CCCON=C(CC)C1CCN(C2CCCN(C(=O)OCC)CC2)CC1 (single isomer, unassigned) [1-11 Isomer 2 (racemic)]
21 | 631 nM | 47% |  |  |  |  | 200 nM |  |  |  |  |  |  | 31% |  |  | CCOC(=O)N1CCC[C@H](N2CCC(C(C)=NOC)CC2)CC1 (single isomer, unassigned) [(S)-1-1 Isomer 1]
